With `OC[C@H]1O[C@@H](Oc2ccc(O)cc2)[C@H](O)[C@@H](O)[C@@H]1O` the solubility (mole fraction) (in 1,4-dioxane, 283.15 K) was 0.0046, the solubility (mole fraction) (in 1,4-dioxane, 293.15 K) was 0.00491 and the solubility (mole fraction) (in 1,4-dioxane, 303.15 K) was 0.00579. For the same molecule, the solubility (mole fraction) (in 1,4-dioxane, 313.15 K) was 0.00696, the solubility (mole fraction) (in 1,4-dioxane, 323.15 K) was 0.00816 and the solubility (mole fraction) (in acetone, 283.15 K) was 0.000601. The solubility (mole fraction) (in acetone, 293.15 K) was 0.000781, the solubility (mole fraction) (in acetone, 303.15 K) was 0.000962 and the solubility (mole fraction) (in acetone, 313.15 K) was 0.00126. The solubility (mole fraction) (in acetone, 323.15 K) was 0.00161, the solubility (mole fraction) (in acetonitrile, 283.15 K) was 3.5e-05 and the solubility (mole fraction) (in acetonitrile, 293.15 K) was 7.2e-05. The solubility (mole fraction) (in acetonitrile, 303.15 K) was 0.000145, the solubility (mole fraction) (in acetonitrile, 313.15 K) was 0.000239 and the solubility (mole fraction) (in acetonitrile, 323.15 K) was 0.000365. For the same molecule, the solubility (mole fraction) (in dichloromethane, 283.15 K) was 4e-06, the solubility (mole fraction) (in dichloromethane, 288.15 K) was 7e-06 and the solubility (mole fraction) (in dichloromethane, 293.15 K) was 1e-05. The solubility (mole fraction) (in dichloromethane, 298.15 K) was 1.3e-05, the solubility (mole fraction) (in dichloromethane, 303.15 K) was 1.6e-05 and the solubility (mole fraction) (in ethanol, 283.15 K) was 0.00228. It also gave a solubility (mole fraction) (in ethanol, 293.15 K) of 0.00274, a solubility (mole fraction) (in ethanol, 303.15 K) of 0.00351 and a solubility (mole fraction) (in ethanol, 313.15 K) of 0.0044. It also gave a solubility (mole fraction) (in ethanol, 323.15 K) of 0.00582, a solubility (mole fraction) (in ethyl acetate, 283.15 K) of 0.000155 and a solubility (mole fraction) (in ethyl acetate, 293.15 K) of 0.00016. For the same molecule, the solubility (mole fraction) (in ethyl acetate, 303.15 K) was 0.000166, the solubility (mole fraction) (in ethyl acetate, 313.15 K) was 0.000173 and the solubility (mole fraction) (in ethyl acetate, 323.15 K) was 0.00018. The solubility (mole fraction) (in isopropanol, 283.15 K) was 0.000532, the solubility (mole fraction) (in isopropanol, 293.15 K) was 0.000795 and the solubility (mole fraction) (in isopropanol, 303.15 K) was 0.00128. It also gave a solubility (mole fraction) (in isopropanol, 313.15 K) of 0.00172, a solubility (mole fraction) (in isopropanol, 323.15 K) of 0.00259 and a solubility (mole fraction) (in methanol, 283.15 K) of 0.0112. The solubility (mole fraction) (in methanol, 293.15 K) was 0.0129, the solubility (mole fraction) (in methanol, 303.15 K) was 0.0151 and the solubility (mole fraction) (in methanol, 313.15 K) was 0.0181. For the same molecule, the solubility (mole fraction) (in methanol, 323.15 K) was 0.0226, the solubility (mole fraction) (in n-pentanol, 283.15 K) was 0.000338 and the solubility (mole fraction) (in n-pentanol, 293.15 K) was 0.000471. It also gave a solubility (mole fraction) (in n-pentanol, 303.15 K) of 0.000689, a solubility (mole fraction) (in n-pentanol, 313.15 K) of 0.000851 and a solubility (mole fraction) (in n-pentanol, 323.15 K) of 0.00119. For the same molecule, the solubility (mole fraction) (in n-propanol, 283.15 K) was 0.000787, the solubility (mole fraction) (in n-propanol, 293.15 K) was 0.00102 and the solubility (mole fraction) (in n-propanol, 303.15 K) was 0.00142. The solubility (mole fraction) (in n-propanol, 313.15 K) was 0.00185, the solubility (mole fraction) (in n-propanol, 323.15 K) was 0.00248 and the solubility (mole fraction) (in sec-butanol, 283.15 K) was 0.000355. The solubility (mole fraction) (in sec-butanol, 293.15 K) was 0.000691, the solubility (mole fraction) (in sec-butanol, 303.15 K) was 0.000969 and the solubility (mole fraction) (in sec-butanol, 313.15 K) was 0.00167. It also gave a solubility (mole fraction) (in sec-butanol, 323.15 K) of 0.00226, a solubility (mole fraction) (in water, 283.15 K) of 0.00524 and a solubility (mole fraction) (in water, 293.15 K) of 0.00796. It also gave a solubility (mole fraction) (in water, 303.15 K) of 0.0108, a solubility (mole fraction) (in water, 313.15 K) of 0.0173 and a solubility (mole fraction) (in water, 323.15 K) of 0.0283.

Reference: BigSolDB 2.1
